Measurements reported in the kinase profiling compilation of Christmann-Franck et al. (2016).

Legend:
Test in all cases: KINOMEscan competition binding
Conditions in all cases: compound 10.0 µM
AURKA (human) = AURKA (human) (UniProt O14965)
BLK (human) = BLK (human) (UniProt P51451)
BRSK1 (human) = BRSK1 (human) (UniProt Q8TDC3)
CDK14 (human) = CDK14 (human) (UniProt O94921)
CDK19 (human) = CDK19 (human) (UniProt Q9BWU1)
CDK3 (human) = CDK3 (human) (UniProt Q00526)
EPHA7 (human) = EPHA7 (human) (UniProt Q15375)
FGFR4 (human) = FGFR4 (human) (UniProt P22455)
GSK3B (human) = GSK3B (human) (UniProt P49841)
HIPK1 (human) = HIPK1 (human) (UniProt Q86Z02)
[1] = target: JAK1 JH2 pseudokinase (human) (UniProt P23458)
LATS1 (human) = LATS1 (human) (UniProt O95835)
LATS1 (human), sequence (O95835 whole entry, looked up): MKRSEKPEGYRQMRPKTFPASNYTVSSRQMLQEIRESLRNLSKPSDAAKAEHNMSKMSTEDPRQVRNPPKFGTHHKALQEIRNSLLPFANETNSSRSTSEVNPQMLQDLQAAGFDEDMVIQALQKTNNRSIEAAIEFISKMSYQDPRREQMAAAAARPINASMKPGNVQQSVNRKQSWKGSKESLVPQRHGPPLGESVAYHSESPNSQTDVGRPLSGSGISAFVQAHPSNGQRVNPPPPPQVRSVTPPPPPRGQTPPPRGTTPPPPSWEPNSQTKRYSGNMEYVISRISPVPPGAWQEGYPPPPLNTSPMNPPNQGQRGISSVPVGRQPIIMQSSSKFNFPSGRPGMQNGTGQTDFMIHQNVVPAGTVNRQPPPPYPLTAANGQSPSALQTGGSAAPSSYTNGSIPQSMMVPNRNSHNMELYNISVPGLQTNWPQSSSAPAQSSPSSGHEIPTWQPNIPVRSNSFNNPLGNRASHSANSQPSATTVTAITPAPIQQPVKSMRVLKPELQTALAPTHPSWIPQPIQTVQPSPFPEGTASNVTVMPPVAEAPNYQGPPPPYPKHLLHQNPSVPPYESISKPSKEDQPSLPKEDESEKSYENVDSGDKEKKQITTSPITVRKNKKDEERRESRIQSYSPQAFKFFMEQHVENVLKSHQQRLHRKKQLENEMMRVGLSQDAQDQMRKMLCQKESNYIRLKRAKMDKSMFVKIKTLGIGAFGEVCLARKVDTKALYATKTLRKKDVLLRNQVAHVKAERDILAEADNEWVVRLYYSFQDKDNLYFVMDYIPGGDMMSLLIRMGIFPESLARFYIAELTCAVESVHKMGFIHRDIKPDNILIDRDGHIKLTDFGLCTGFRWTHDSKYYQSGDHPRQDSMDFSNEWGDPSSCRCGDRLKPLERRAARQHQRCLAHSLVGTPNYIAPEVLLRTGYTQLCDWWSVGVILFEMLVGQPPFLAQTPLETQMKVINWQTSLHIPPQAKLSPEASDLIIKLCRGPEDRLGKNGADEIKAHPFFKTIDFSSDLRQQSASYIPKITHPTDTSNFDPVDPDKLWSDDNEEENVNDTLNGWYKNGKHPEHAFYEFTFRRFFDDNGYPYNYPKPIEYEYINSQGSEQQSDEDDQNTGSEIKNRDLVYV

MAP3K12 (human) = MAP3K12 (human) (UniProt Q12852)
MAPK7 (human) = MAPK7 (human) (UniProt Q13164)
MARK1 (human) = MARK1 (human) (UniProt Q9P0L2)
MARK1 (human), sequence (Q9P0L2 whole entry, looked up): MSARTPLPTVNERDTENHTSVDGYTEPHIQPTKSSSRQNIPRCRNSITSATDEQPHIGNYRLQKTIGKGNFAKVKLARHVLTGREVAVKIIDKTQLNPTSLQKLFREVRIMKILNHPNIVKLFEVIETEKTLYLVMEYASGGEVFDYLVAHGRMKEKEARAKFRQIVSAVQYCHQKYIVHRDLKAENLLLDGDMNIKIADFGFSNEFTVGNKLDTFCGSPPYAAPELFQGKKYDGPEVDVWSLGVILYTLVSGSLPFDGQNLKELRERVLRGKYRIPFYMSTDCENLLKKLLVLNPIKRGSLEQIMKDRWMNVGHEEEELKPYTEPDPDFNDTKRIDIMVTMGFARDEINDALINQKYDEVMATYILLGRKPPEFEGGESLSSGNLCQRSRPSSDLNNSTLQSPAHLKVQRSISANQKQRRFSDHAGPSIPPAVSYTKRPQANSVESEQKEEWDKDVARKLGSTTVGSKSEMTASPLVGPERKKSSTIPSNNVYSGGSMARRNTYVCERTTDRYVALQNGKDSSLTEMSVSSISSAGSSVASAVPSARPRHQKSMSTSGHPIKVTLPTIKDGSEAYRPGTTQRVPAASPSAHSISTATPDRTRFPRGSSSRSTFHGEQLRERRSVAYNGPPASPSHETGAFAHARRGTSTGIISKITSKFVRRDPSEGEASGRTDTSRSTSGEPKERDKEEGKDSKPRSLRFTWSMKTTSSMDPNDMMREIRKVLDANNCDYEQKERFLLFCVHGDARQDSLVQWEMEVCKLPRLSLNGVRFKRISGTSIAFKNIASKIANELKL

MARK4 (human) = MARK4 (human) (UniProt Q96L34)
MYLK4 (human) = MYLK4 (human) (UniProt Q86YV6)
MYLK4 (human), sequence (Q86YV6 whole entry, looked up): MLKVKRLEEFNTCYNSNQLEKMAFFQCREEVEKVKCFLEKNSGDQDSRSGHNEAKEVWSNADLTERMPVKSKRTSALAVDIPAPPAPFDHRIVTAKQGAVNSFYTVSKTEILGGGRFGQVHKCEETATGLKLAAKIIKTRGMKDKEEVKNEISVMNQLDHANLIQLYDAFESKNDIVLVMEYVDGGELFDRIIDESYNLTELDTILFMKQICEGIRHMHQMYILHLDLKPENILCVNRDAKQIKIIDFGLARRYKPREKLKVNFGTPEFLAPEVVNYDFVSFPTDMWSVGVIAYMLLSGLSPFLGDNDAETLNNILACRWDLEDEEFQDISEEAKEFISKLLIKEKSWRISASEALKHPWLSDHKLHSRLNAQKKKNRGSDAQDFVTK

PIK3CB (human) = PIK3CB (human) (UniProt P42338)
PIM3 (human) = PIM3 (human) (UniProt Q86V86)
PKN1 (human) = PKN1 (human) (UniProt Q16512)
PKN2 (human) = PKN2 (human) (UniProt Q16513)
PLK3 (human) = PLK3 (human) (UniProt Q9H4B4)
PTK2 (human) = PTK2 (human) (UniProt Q05397)
PTK2B (human) = PTK2B (human) (UniProt Q14289)
RET (human) = RET (human) (UniProt P07949)
RET (human), sequence (P07949 whole entry, looked up): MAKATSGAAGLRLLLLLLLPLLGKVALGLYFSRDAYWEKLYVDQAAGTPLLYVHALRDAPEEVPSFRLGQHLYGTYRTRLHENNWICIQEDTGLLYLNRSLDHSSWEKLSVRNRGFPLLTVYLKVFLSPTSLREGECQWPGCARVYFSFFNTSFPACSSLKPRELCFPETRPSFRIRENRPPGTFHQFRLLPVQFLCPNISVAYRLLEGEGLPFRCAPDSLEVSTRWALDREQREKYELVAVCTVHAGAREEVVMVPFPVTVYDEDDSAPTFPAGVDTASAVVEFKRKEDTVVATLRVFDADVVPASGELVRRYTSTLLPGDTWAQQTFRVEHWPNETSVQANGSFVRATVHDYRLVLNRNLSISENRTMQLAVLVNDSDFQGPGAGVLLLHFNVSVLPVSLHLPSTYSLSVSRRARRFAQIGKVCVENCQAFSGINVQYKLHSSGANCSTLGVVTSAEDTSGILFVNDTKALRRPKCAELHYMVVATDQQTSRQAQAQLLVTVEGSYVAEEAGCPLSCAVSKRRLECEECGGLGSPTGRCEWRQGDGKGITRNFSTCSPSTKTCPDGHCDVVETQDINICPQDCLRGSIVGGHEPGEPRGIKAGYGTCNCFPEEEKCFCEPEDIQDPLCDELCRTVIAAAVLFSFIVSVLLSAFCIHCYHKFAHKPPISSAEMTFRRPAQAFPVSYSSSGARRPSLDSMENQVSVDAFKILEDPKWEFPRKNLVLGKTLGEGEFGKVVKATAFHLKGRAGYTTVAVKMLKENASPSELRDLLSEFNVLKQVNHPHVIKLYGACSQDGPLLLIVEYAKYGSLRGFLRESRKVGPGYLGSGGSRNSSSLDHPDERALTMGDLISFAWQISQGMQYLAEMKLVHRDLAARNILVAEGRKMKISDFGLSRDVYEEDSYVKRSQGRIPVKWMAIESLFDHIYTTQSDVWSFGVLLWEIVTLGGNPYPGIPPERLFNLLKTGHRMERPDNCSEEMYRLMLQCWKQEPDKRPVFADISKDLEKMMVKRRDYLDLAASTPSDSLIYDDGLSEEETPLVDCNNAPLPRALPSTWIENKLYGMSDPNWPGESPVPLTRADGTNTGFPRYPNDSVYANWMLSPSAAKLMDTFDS

RIOK1 (human) = RIOK1 (human) (UniProt Q9BRS2)
RIPK1 (human) = RIPK1 (human) (UniProt Q13546)
RIPK4 (human) = RIPK4 (human) (UniProt P57078)
RPS6KA2 KD1 (human) = RPS6KA2 KD1 (human) (UniProt Q15349)
RPS6KA2 KD2 (human) = RPS6KA2 KD2 (human) (UniProt Q15349)
SRC (human) = SRC (human) (UniProt P12931)
STK16 (human) = STK16 (human) (UniProt O75716)
STK24 (human) = STK24 (human) (UniProt Q9Y6E0)
STK25 (human) = STK25 (human) (UniProt O00506)
STK36 (human) = STK36 (human) (UniProt Q9NRP7)
SYK (human) = SYK (human) (UniProt P43405)
TAOK1 (human) = TAOK1 (human) (UniProt Q7L7X3)
TXK (human) = TXK (human) (UniProt P42681)
TXK (human), sequence (P42681 whole entry, looked up): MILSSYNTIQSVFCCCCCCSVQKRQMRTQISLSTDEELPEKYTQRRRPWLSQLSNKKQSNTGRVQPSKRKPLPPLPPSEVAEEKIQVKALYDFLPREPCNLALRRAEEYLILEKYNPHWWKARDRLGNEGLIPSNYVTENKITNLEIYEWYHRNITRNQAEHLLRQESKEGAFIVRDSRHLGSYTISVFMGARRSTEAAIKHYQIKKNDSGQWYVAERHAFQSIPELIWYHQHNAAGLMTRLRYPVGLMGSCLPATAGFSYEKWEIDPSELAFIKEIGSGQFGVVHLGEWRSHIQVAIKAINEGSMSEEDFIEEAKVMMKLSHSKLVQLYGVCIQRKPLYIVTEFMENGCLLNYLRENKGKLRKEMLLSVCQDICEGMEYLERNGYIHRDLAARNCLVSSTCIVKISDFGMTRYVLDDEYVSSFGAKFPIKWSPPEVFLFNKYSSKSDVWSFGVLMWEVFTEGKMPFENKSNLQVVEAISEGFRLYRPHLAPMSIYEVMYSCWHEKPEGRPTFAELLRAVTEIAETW

CSF1R (human) = CSF1R (human) (UniProt P07333)
CSNK1E (human) = CSNK1E (human) (UniProt P49674)

BLK (human), sequence (P51451 whole entry, looked up): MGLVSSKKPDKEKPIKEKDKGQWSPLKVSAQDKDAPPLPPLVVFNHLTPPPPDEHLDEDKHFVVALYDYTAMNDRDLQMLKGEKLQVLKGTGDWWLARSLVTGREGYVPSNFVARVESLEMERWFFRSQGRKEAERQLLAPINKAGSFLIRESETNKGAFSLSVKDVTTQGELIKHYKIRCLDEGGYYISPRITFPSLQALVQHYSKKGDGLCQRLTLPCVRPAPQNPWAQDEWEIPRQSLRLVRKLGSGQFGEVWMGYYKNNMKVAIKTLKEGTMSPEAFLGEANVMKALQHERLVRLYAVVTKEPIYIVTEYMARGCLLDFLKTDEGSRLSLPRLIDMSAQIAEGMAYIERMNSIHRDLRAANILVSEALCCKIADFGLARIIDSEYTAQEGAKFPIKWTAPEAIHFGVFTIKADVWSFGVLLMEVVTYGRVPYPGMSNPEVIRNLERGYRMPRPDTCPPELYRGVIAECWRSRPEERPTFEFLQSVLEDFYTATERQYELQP

| Structure (SMILES) | kinase still bound, per cent of control (AURKA (human)) | kinase still bound, per cent of control (BLK (human)) | kinase still bound, per cent of control (BRSK1 (human)) | kinase still bound, per cent of control (CDK14 (human)) | kinase still bound, per cent of control (CDK19 (human)) | kinase still bound, per cent of control (CDK3 (human)) | kinase still bound, per cent of control (EPHA7 (human)) | kinase still bound, per cent of control (FGFR4 (human)) | kinase still bound, per cent of control (HIPK1 (human)) | kinase still bound, per cent of control [1] | kinase still bound, per cent of control (LATS1 (human)) | kinase still bound, per cent of control (MAP3K12 (human)) | kinase still bound, per cent of control (MAPK7 (human)) | kinase still bound, per cent of control (MARK1 (human)) | kinase still bound, per cent of control (MARK4 (human)) | kinase still bound, per cent of control (MYLK4 (human)) | kinase still bound, per cent of control (PIK3CB (human)) | kinase still bound, per cent of control (PIM3 (human)) | kinase still bound, per cent of control (PKN1 (human)) | kinase still bound, per cent of control (PKN2 (human)) | further results |
| --- | --- | --- | --- | --- | --- | --- | --- | --- | --- | --- | --- | --- | --- | --- | --- | --- | --- | --- | --- | --- | --- |
| Nc1ccc(-c2ccc3ncc4ccc(=O)n(-c5cccc(C(F)(F)F)c5)c4c3c2)cn1 | 100% | 98% | 88% | 97% | 100% | 100% | 100% | 100% | 79% | 13% | 100% | 100% | 100% | 100% | 100% | 97% | 6.6% | 100% | 100% | 72% | kinase still bound, per cent of control (GSK3B (human)): 100%; kinase still bound, per cent of control (PLK3 (human)): 94%; kinase still bound, per cent of control (PTK2 (human)): 75%; kinase still bound, per cent of control (PTK2B (human)): 86%; kinase still bound, per cent of control (RET (human)): 100%; kinase still bound, per cent of control (RIOK1 (human)): 65%; kinase still bound, per cent of control (RIPK1 (human)): 100%; kinase still bound, per cent of control (RIPK4 (human)): 100%; kinase still bound, per cent of control (RPS6KA2 KD1 (human)): 100%; kinase still bound, per cent of control (RPS6KA2 KD2 (human)): 86%; kinase still bound, per cent of control (SRC (human)): 100%; kinase still bound, per cent of control (STK16 (human)): 59%; kinase still bound, per cent of control (STK24 (human)): 98%; kinase still bound, per cent of control (STK25 (human)): 56%; kinase still bound, per cent of control (STK36 (human)): 99%; kinase still bound, per cent of control (SYK (human)): 100%; kinase still bound, per cent of control (TAOK1 (human)): 62%; kinase still bound, per cent of control (TXK (human)): 100% |
| O=C(O)c1ccc(Nc2ncc3c(n2)-c2ccc(Cl)cc2C(c2c(F)cccc2F)=NC3)cc1 | 0.5% | 0.7% | 100% | 100% | 96% | 100% | 8.8% | 58% | 14% | 80% | 98% | 100% | 100% | 100% | 100% | 89% | 100% | 42% | 83% | 79% | kinase still bound, per cent of control (CSF1R (human)): 38%; kinase still bound, per cent of control (CSNK1E (human)): 100%; kinase still bound, per cent of control (PLK3 (human)): 18%; kinase still bound, per cent of control (PTK2 (human)): 23%; kinase still bound, per cent of control (RET (human)): 59%; kinase still bound, per cent of control (RIOK1 (human)): 100%; kinase still bound, per cent of control (RIPK1 (human)): 100%; kinase still bound, per cent of control (RIPK4 (human)): 100%; kinase still bound, per cent of control (RPS6KA2 KD1 (human)): 100%; kinase still bound, per cent of control (RPS6KA2 KD2 (human)): 64%; kinase still bound, per cent of control (STK16 (human)): 30%; kinase still bound, per cent of control (STK24 (human)): 76%; kinase still bound, per cent of control (STK25 (human)): 56%; kinase still bound, per cent of control (STK36 (human)): 100%; kinase still bound, per cent of control (SYK (human)): 78%; kinase still bound, per cent of control (TAOK1 (human)): 71%; kinase still bound, per cent of control (TXK (human)): 46% |
| CCOc1cc2ncc(C#N)c(Nc3ccc(OCc4ccccn4)c(Cl)c3)c2cc1NC(=O)/C=C/CN(C)C | 87% | 3% | 95% | 97% | 100% | 100% | 97% | 100% | 71% | 100% | 90% | 36% | 100% | 94% | 87% | 86% | 100% | 100% | 100% | 72% | kinase still bound, per cent of control (CSF1R (human)): 68%; kinase still bound, per cent of control (CSNK1E (human)): 26%; kinase still bound, per cent of control (PLK3 (human)): 94%; kinase still bound, per cent of control (PTK2 (human)): 65%; kinase still bound, per cent of control (PTK2B (human)): 90%; kinase still bound, per cent of control (RIOK1 (human)): 68%; kinase still bound, per cent of control (RIPK1 (human)): 100%; kinase still bound, per cent of control (RIPK4 (human)): 77%; kinase still bound, per cent of control (RPS6KA2 KD1 (human)): 88%; kinase still bound, per cent of control (RPS6KA2 KD2 (human)): 100%; kinase still bound, per cent of control (SRC (human)): 82%; kinase still bound, per cent of control (STK16 (human)): 96%; kinase still bound, per cent of control (STK24 (human)): 0.35%; kinase still bound, per cent of control (STK25 (human)): 13%; kinase still bound, per cent of control (STK36 (human)): 69%; kinase still bound, per cent of control (SYK (human)): 65%; kinase still bound, per cent of control (TAOK1 (human)): 83%; kinase still bound, per cent of control (TXK (human)): 86% |
| CCCS(=O)(=O)Nc1ccc(F)c(C(=O)c2c[nH]c3ncc(-c4ccc(Cl)cc4)cc23)c1F | 81% | 2.2% | 100% | 100% | 0.8% | 94% | 100% | 100% | 90% | 100% | 100% | 62% | 69% | 100% | 100% | 0.45% | 100% | 100% | 78% | 92% | kinase still bound, per cent of control (CSF1R (human)): 8%; kinase still bound, per cent of control (GSK3B (human)): 100%; kinase still bound, per cent of control (PLK3 (human)): 93%; kinase still bound, per cent of control (PTK2 (human)): 63%; kinase still bound, per cent of control (PTK2B (human)): 100%; kinase still bound, per cent of control (RET (human)): 43%; kinase still bound, per cent of control (RIOK1 (human)): 100%; kinase still bound, per cent of control (RIPK1 (human)): 63%; kinase still bound, per cent of control (RIPK4 (human)): 91%; kinase still bound, per cent of control (RPS6KA2 KD1 (human)): 39%; kinase still bound, per cent of control (RPS6KA2 KD2 (human)): 81%; kinase still bound, per cent of control (SRC (human)): 3.4%; kinase still bound, per cent of control (STK16 (human)): 84%; kinase still bound, per cent of control (STK24 (human)): 77%; kinase still bound, per cent of control (STK25 (human)): 100%; kinase still bound, per cent of control (STK36 (human)): 4.6%; kinase still bound, per cent of control (SYK (human)): 66%; kinase still bound, per cent of control (TAOK1 (human)): 72%; kinase still bound, per cent of control (TXK (human)): 59% |
